Source: article PMC11995724, “Antibiotic target discovery by integrated phenotypic and activity-based profiling of electrophilic fragments” (Cell chemical biology, 2025)

Experiment: in vitro
Conditions: human, hek293t cells

Point of comparison: CCc1nsc(N2CCN(C(=O)C(C#N)=Cc3ccco3)CC2)n1 [9-K05, 2-[4-(3-ethyl-1,2,4-thiadiazol-5-yl)piperazine-1-carbonyl]-3-(furan-2-yl)prop-2-enenitrile], viability at 48 h, 25 µM 121%. Against it:
- C=CC(=O)N1CCC(C(=O)NCc2cn3ccc(C)nc3n2)CC1 [3-D12, N-({7-methylimidazo[1,2-a]pyrimidin-2-yl}methyl)-1-(prop-2-enoyl)piperidine-4-carboxamide] — lower, 75.3%
- C=CC(=O)NC[C@H]1CCCN1S(C)(=O)=O [1-H07, N-{[(2R)-1-methanesulfonylpyrrolidin-2-yl]methyl}prop-2-enamide] — lower, 99.1%
- C=CC(=O)Nc1conc1-c1ccccc1 [1-I09, N-(3-phenyl-1,2-oxazol-4-yl)prop-2-enamide] — lower, 59.1%
- C=CC(=O)NC(c1nnc2n1CCC2)C(C)C (centres unmarked) [3-P07, N-(2-methyl-1-{5H,6H,7H-pyrrolo[2,1-c][1,2,4]triazol-3-yl}propyl)prop-2-enamide] — lower, 52.1%
- CCc1cccc(CC)c1NC(=O)C(C#N)=Cc1ccc(C#N)cc1 [9-O15, 2-cyano-3-(4-cyanophenyl)-N-(2,6-diethylphenyl)prop-2-enamide] — lower, 36.5%
- CC(Cl)C(=O)Nc1ccc(OCc2ccccc2)cc1 (centres unmarked) [6-O13, N-[4-(benzyloxy)phenyl]-2-chloropropanamide] — lower, 99.7%
- CC(Cl)C(=O)Nc1nc(-c2cccc([N+](=O)[O-])c2)cs1 (centres unmarked) [4-E08, 2-chloro-N-[4-(3-nitrophenyl)-1,3-thiazol-2-yl]propanamide] — lower, 59.7%
- CS(=O)(=O)N1CCCc2cc(C(=O)CCl)ccc21 [10-H19, 2-chloro-1-(1-methanesulfonyl-1,2,3,4-tetrahydroquinolin-6-yl)ethan-1-one] — lower, 72%
- C=CC(=O)NCc1cc(-c2ccccc2OC)no1 [2-C18, N-{[3-(2-methoxyphenyl)-1,2-oxazol-5-yl]methyl}prop-2-enamide] — lower, 72.8%
- CC(=O)N1CCc2cc(C(=O)C(C)Cl)ccc21 (centres unmarked) [10-L22, 1-(1-acetyl-2,3-dihydro-1H-indol-5-yl)-2-chloropropan-1-one] — lower, 82.9%
- CN1C=C(C(F)(F)F)C=CC1=C(C#N)C(=O)Nc1ccccc1F [8-H20, 2-cyano-N-(2-fluorophenyl)-2-[1-methyl-5-(trifluoromethyl)-1,2-dihydropyridin-2-ylidene]acetamide] — lower, 90.1%
- CCN1C(=O)C(=Cc2ccc(-c3ccc(F)cc3)o2)C(C)=C(C#N)C1=O [9-P09, 1-ethyl-5-{[5-(4-fluorophenyl)furan-2-yl]methylidene}-4-methyl-2,6-dioxo-1,2,5,6-tetrahydropyridine-3-carbonitrile] — higher, 127%
- C=CC(=O)NCc1nc(C2CC2)cs1 [2-A19, N-[(4-cyclopropyl-1,3-thiazol-2-yl)methyl]prop-2-enamide] — lower, 103%
- N#CC(=Cc1ccccc1OC(F)F)C(=O)NC1CCCCC1 [8-H18, 2-cyano-N-cyclohexyl-3-[2-(difluoromethoxy)phenyl]prop-2-enamide] — lower, 20.8%
- Cc1oc(C(N)=O)cc1C(=O)CCl [10-M05, 4-(2-chloroacetyl)-5-methylfuran-2-carboxamide] — lower, 27.7%
- COc1ccc(N2C(=O)C=CC2=O)c([N+](=O)[O-])c1 [10-L11, 1-(4-methoxy-2-nitrophenyl)-2,5-dihydro-1H-pyrrole-2,5-dione] — lower, 100%
- CN(C1CCCCC1)S(=O)(=O)c1ccccc1NC(=O)CCl [5-N10, 2-chloro-N-{2-[cyclohexyl(methyl)sulfamoyl]phenyl}acetamide] — lower, 0.725%
- O=C(CCl)C1CC12CCOCC2 (centres unmarked) [10-M15, 2-chloro-1-{6-oxaspiro[2.5]octan-1-yl}ethan-1-one] — lower, 108%
- N#Cc1cc([N+](=O)[O-])ccc1NC(=O)CCl [4-O09, 2-chloro-N-(2-cyano-4-nitrophenyl)acetamide] — lower, 1.1%
- CC(Cl)C(=O)NCc1cccs1 (centres unmarked) [4-P11, 2-chloro-N-[(thiophen-2-yl)methyl]propanamide] — lower, 68.4%
- C[C@H](NC(=O)CCl)C(=O)N1CCCCC1 [7-L14, 2-chloro-N-[(2S)-1-oxo-1-(piperidin-1-yl)propan-2-yl]acetamide] — lower, 70.1%
- O=C(CCl)c1ccc2c(c1)CCN(C(=O)C(F)(F)F)C2 [10-E09, 1-[6-(2-chloroacetyl)-1,2,3,4-tetrahydroisoquinolin-2-yl]-2,2,2-trifluoroethan-1-one] — lower, 4.03%
- Cn1cc(C(=O)CCl)cc1C(N)=O [10-J06, 4-(2-chloroacetyl)-1-methyl-1H-pyrrole-2-carboxamide] — lower, 1.55%
- C=CC(=O)N1CCC(C(=O)NCc2ccc(OC)cn2)CC1 [3-O19, N-[(5-methoxypyridin-2-yl)methyl]-1-(prop-2-enoyl)piperidine-4-carboxamide] — lower, 59%
- Cc1cc(CC(C)NC(=O)C(C)Cl)n(-c2ccccc2)n1 (centres unmarked) [7-H21, 2-chloro-N-[1-(3-methyl-1-phenyl-1H-pyrazol-5-yl)propan-2-yl]propanamide] — lower, 80.1%
- CC(C)NC(=O)C(C#N)=Cc1ccc(Cl)cc1Cl [9-K07, 2-cyano-3-(2,4-dichlorophenyl)-N-(propan-2-yl)prop-2-enamide] — lower, 49.5%
- Cc1cc(C)c(NC(=O)C(C)Cl)c(C)c1 (centres unmarked) [5-K15, 2-chloro-N-(2,4,6-trimethylphenyl)propanamide] — higher, 140%
- CC(Cl)C(=O)c1ccc2c(c1)CCC2 (centres unmarked) [10-M08, 2-chloro-1-(2,3-dihydro-1H-inden-5-yl)propan-1-one] — lower, 95.2%
- CCN(c1ccc(C(=O)CCl)cc1)S(C)(=O)=O [10-F04, N-[4-(2-chloroacetyl)phenyl]-N-ethylmethanesulfonamide] — lower, 22.5%
- C=CC(=O)N1CCN(c2nccn(C)c2=O)CC1 [3-P20, 1-methyl-3-[4-(prop-2-enoyl)piperazin-1-yl]-1,2-dihydropyrazin-2-one] — higher, 181%
- O=C(CCl)NCCCC(=O)N1CCCC1 [7-N08, 2-chloro-N-[4-oxo-4-(pyrrolidin-1-yl)butyl]acetamide] — lower, 93.6%
- CC(Cl)C(=O)NC1CC(C)N(c2ccccc2)C1=O (centres unmarked) [5-B19, 2-chloro-N-(5-methyl-2-oxo-1-phenylpyrrolidin-3-yl)propanamide] — lower, 112%
- C=CC(=O)NCc1cc(C(F)(F)F)on1 [3-F20, N-{[5-(trifluoromethyl)-1,2-oxazol-3-yl]methyl}prop-2-enamide] — lower, 84.8%
- C=CC(=O)N1CCC(n2cc(C(N)=O)nn2)C1 (centres unmarked) [1-C18, 1-[1-(prop-2-enoyl)pyrrolidin-3-yl]-1H-1,2,3-triazole-4-carboxamide] — lower, 79.6%
- CC(Cl)C(=O)NCc1nc(C2CC2)n[nH]1 (centres unmarked) [7-L19, 2-chloro-N-[(3-cyclopropyl-1H-1,2,4-triazol-5-yl)methyl]propanamide] — lower, 91.3%
- Cc1c(CN(CC2CC=CCC2)C(=O)CCl)cnn1C (centres unmarked) [5-C14, 2-chloro-N-[(cyclohex-3-en-1-yl)methyl]-N-[(1,5-dimethyl-1H-pyrazol-4-yl)methyl]acetamide] — lower, 0.469%
- C=CC(=O)N1CCC(C(=O)Nc2c[nH]c(=O)c(C)c2)CC1 [3-J05, N-(5-methyl-6-oxo-1,6-dihydropyridin-3-yl)-1-(prop-2-enoyl)piperidine-4-carboxamide] — lower, 51.5%
- Cc1cccc(CN(C(=O)CCl)C(C)C)c1 [6-J05, 2-chloro-N-[(3-methylphenyl)methyl]-N-(propan-2-yl)acetamide] — lower, 0.679%
- COc1ccc(OC)c(NC(=O)CCl)c1 [6-O04, 2-chloro-N-(2,5-dimethoxyphenyl)acetamide] — lower, 0.314%
- CC(NC(=O)CCl)C(=O)N1c2ccccc2CC1C (centres unmarked) [7-N16, 2-chloro-N-[1-(2-methyl-2,3-dihydro-1H-indol-1-yl)-1-oxopropan-2-yl]acetamide] — lower, 0.726%
- CCC(=O)Nc1cccc(NC(=O)CCl)c1C [5-K04, N-[3-(2-chloroacetamido)-2-methylphenyl]propanamide] — lower, 2.12%
- C=CC(=O)NCc1coc(-c2cccs2)n1 [1-C07, N-{[2-(thiophen-2-yl)-1,3-oxazol-4-yl]methyl}prop-2-enamide] — lower, 70.1%
- COc1ccc(C=C(C#N)C(=O)Nc2cccc(C(F)(F)F)c2)cc1 [8-A03, 2-cyano-3-(4-methoxyphenyl)-N-[3-(trifluoromethyl)phenyl]prop-2-enamide] — lower, 72.2%
- C=CC(=O)N(C)Cc1cn(C2CC2)cn1 [2-J13, N-[(1-cyclopropyl-1H-imidazol-4-yl)methyl]-N-methylprop-2-enamide] — lower, 76.5%
- CC(Cl)C(=O)Nc1cccnc1Cl (centres unmarked) [6-C17, 2-chloro-N-(2-chloropyridin-3-yl)propanamide] — lower, 106%
- C=CC(=O)N1CCC(c2nc(C3CC3)no2)C1 (centres unmarked) [2-E09, 1-[3-(3-cyclopropyl-1,2,4-oxadiazol-5-yl)pyrrolidin-1-yl]prop-2-en-1-one] — lower, 70%
- C=CC(=O)NCc1ccccc1-n1ccc(C)n1 [1-J19, N-{[2-(3-methyl-1H-pyrazol-1-yl)phenyl]methyl}prop-2-enamide] — higher, 126%
- C=CCNC(=O)C(C#N)=Cc1sccc1C [9-P07, 2-cyano-3-(3-methylthiophen-2-yl)-N-(prop-2-en-1-yl)prop-2-enamide] — lower, 117%
- COc1ccc(NC(=O)C(C#N)=Cc2c(Cl)nc3ccccn23)cc1 [9-G09, 3-{2-chloroimidazo[1,2-a]pyridin-3-yl}-2-cyano-N-(4-methoxyphenyl)prop-2-enamide] — the same, 121%
- COc1ccc(N(CC(F)(F)F)C(=O)CCl)cc1 [4-C15, 2-chloro-N-(4-methoxyphenyl)-N-(2,2,2-trifluoroethyl)acetamide] — lower, 0.659%
- C=CC(=O)Nc1cccc(-c2ccon2)c1 [3-L04, N-[3-(1,2-oxazol-3-yl)phenyl]prop-2-enamide] — lower, 70.4%
- CC(Cl)C(=O)N1CCCC(CNC(=O)Nc2ccc(F)cc2)C1 (centres unmarked) [6-J22, 3-{[1-(2-chloropropanoyl)piperidin-3-yl]methyl}-1-(4-fluorophenyl)urea] — lower, 105%
